Reference: publication PMC10179505, “Rivastigmine–Benzimidazole Hybrids as Promising Multitarget Metal-Modulating Compounds for Potential Treatment of Neurodegenerative Diseases” (International Journal of Molecular Sciences, 2023)
Where two headings read alike, the source gives them in different places.

How the values were obtained:
SH-SY5Y cells = assay type: cell-based, human; conditions: 1 µM compound, 1 h pre-incubation, then 0.5 mM MPP+ for 24 h
Method: SH-SY5Y human neuroblastoma cells were kept in culture under a humidified atmosphere of 5% CO2 at 37 °C in Dulbecco’s Modified Eagle Medium/Nutrient Mixture F-12 (DMEM/F-12) (Gibco, Thermo Fisher Scientific) supplemented with 10% heat-inactivated fetal bovine serum (FBS), 50 U/mL penicillin, and 50 μg/mL streptomycin. Cells were plated at a density of 1 × 10^5 cells/mL and pre-incubated for 1 h with the compounds by adding them to the medium at the following final concentrations: 1 µM for compounds 4a, 4b, and 5b; 2 µM for compounds 4c and 5a; and 3 µM for compound 4d. Then the cells were incubated for 24 h with MPP^+ (1-methyl-4-phenylpyridinium, Sigma-Aldrich) (1 h pre-incubation + 24 h incubation) at the final concentration of 0.5 mM. MPP^+ was freshly prepared in sterile water on the day of the experiment. The compounds were dissolved in DMSO, aliquoted, and stored at −20 °C; their toxicity was previously studied through cell viability assays to select the highest non-toxic concentration of each compound.
Cell viability was measured by the colorimetric MTT (3-(4,5-dimethylthiazol-2-yl)-2,5-diphenyltetrazolium bromide) reduction assay, which follows the principle that viable cells can metabolize MTT into formazan that absorbs light at 570 nm. After the cell treatments with the compounds and MPP^+, the culture medium was removed, 150 µL of MTT (0.5 mg/mL dissolved in sodium medium) was added to each well, and the 48-well plate was incubated at 37 °C for 2 h. The formazan precipitates were then solubilized with 150 µL of 0.04 M HCl/isopropanol. The absorbance was read at 570 nm using a spectrophotometer (Spectramax Plus 384), and cell viability results were normalized to untreated SH-SY5Y cells, with the means ± SEMs derived from six different experiments performed in duplicate (N = 6). Statistical analyses were performed on GraphPad Prism 8 (GraphPad Software, San Diego, CA, USA) using one-way analysis of variance (ANOVA) followed by Tukey’s post hoc test or using Student’s t-test to determine statistical significance.

Aβ42 [1] = conditions: cited from earlier work
hMAO-B = target: T1, hMAO-B (Homo sapiens, UniProt P27338); assay: hMAO-B inhibition (kynuramine to 4-hydroxyquinoline, microsomal recombinant enzyme); assay type: biochemical
T1 construct: purchased Sigma-Aldrich Quimica S.A., Madrid, Spain; host or cells: insect cells (BTI-TN-5B1-4) infected with recombinant baculovirus
T1 sequence (P27338 1-520): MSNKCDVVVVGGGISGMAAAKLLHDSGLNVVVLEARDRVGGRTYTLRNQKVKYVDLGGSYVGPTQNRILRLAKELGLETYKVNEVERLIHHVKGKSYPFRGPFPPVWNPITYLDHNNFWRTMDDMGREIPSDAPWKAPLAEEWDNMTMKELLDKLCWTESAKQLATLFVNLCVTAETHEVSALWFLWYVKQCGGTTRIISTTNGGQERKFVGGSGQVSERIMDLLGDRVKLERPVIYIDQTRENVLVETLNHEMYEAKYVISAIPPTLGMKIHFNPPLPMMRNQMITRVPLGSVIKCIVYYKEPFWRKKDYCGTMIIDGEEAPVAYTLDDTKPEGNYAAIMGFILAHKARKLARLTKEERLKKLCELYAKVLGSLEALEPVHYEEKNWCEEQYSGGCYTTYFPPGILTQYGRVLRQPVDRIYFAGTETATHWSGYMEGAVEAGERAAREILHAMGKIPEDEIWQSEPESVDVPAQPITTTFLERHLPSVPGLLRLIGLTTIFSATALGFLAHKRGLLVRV
Method: (§1) The inhibitory activity of the rivastigmine hybrids (RIV–BIM) on hMAO-A and hMAO-B was studied using an experimental protocol described elsewhere with some modifications. The outlined hMAO inhibition was assessed in microsomal MAO isoforms prepared from insect cells (BTI-TN-5B1-4) infected with recombinant baculovirus containing cDNA inserts for hMAO-A or hMAO-B (Sigma-Aldrich Quimica S.A., Madrid, Spain) and by measuring the enzymatic conversion rates of kynuramine into 4-hydroxyquinoline. […] All assays were performed under sodium phosphate-buffered conditions (50 mM, pH = 7.4). […] Then, the reaction was started with the addition of hMAO-A or hMAO-B. Initial velocities were determined spectrophotometrically in a microplate reader (Biotek Synergy HT, Winooski, VT, USA) at 37 °C by measuring the formation of 4-hydroxyquinoline at 316 nm, over a period of at least 30 min (interval of 1 min). Data were analyzed using GraphPad PRISM version 6 for Windows (GraphPad Software®, San Diego, CA, USA). The initial velocities, obtained from the linear phase of product formation, were normalized and plotted against the respective inhibitor concentration. IC50 values were obtained from dose–response curves and were expressed as the mean ± standard deviation. IC50 values were determined from at least three independent experiments, each performed in triplicate.

hMAO-A = target: T2, hMAO-A (Homo sapiens, UniProt P21397); assay: hMAO-A inhibition (kynuramine to 4-hydroxyquinoline, microsomal recombinant enzyme); assay type: biochemical; conditions: for inhibition at 10 µM: read-out: % Inhibition (at 10 µM) hMAO-A; for hMAO isoform selectivity: hMAO-A vs hMAO-B
T2 construct: purchased Sigma-Aldrich Quimica S.A., Madrid, Spain; host or cells: insect cells (BTI-TN-5B1-4) infected with recombinant baculovirus
T2 sequence (P21397 1-527): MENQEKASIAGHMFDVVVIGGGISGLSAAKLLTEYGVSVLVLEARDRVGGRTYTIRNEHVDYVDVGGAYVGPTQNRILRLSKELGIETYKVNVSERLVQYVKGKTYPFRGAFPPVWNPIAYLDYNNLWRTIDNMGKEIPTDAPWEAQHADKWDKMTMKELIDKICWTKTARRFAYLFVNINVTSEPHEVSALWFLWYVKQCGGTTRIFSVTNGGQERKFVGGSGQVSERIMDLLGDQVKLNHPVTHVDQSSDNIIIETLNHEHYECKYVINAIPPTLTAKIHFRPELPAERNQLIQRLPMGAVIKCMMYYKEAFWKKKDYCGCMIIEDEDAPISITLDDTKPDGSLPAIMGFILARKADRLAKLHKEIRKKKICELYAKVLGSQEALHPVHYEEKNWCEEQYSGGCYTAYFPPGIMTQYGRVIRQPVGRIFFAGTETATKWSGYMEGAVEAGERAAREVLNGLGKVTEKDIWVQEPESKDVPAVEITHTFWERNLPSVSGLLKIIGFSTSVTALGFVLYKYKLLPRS
Method: as §1

Aβ42 [2] = conditions: cited from earlier work; remark: listed apart in the source
[3] = Fe(III) complexation by spectrophotometric titration; assay type: physicochemical
Method: (§2) The metal complexation studies were performed by spectrophotometric titration, in the same 50% w/w DMSO/water medium used for both ligands alone, with fitting analysis of the UV-Vis spectra by Psequad. The calculated metal-chelating equilibrium models, included in Table 1, show good chelating capacity towards Cu(II) (pCu~10.3–13.6) and Fe(III) (pFe~16.8–17.4), involving complex species with a 1:1 to 1:2 or 1:1 to 1:3 M/L ratio, respectively. Metal coordination is expected to occur primarily through the phenolic oxygen and the imidazole nitrogen N(3) of the BIM moiety.
(§3) The two positional isomeric hybrids 4c and 5a were titrated, alone or in the presence of the metal ions, in a 50% w/w DMSO/H2O medium, at T = 25.0 ± 0.1 °C and ionic strength of (I) 0.1 M KCl, by using a 0.1 M KOH (50% w/w DMSO/H2O) titrant solution. The glass and Ag/AgCl reference electrodes were previously conditioned in different DMSO/H2O mixtures of increasing DMSO % compositions, and the response of the glass electrode was evaluated by strong acid–strong base (HCl/KOH) calibrations with the determination of the Nernst parameters by Gran’s method. […] The spectrophotometric measurements were carried out in a 250–450 nm (L, Cu/L systems) or 250–650 nm (L, Fe/L systems) wavelength range at pH ca 2.5–8.0. Under these specified experimental conditions, the pKw value (14.95) was determined and subsequently used in the calculations. The stepwise protonation constants of the ligands, Ki = [HiL]/[Hi−1L][H], and the overall metal–complex stability constants, βMmHhLl = [MmHhLl]/[M]^m[H]^h[L]^l, were calculated by fitting the spectrophotometric data with the Psequad program. The metal hydrolysis model was determined under the established experimental conditions (I = 0.1 M KCl, 50% w/w DMSO/H2O, T = 25.0 ± 0.1 °C) and the following values of stability constants were included in the equilibrium models related to the Fe(III)/L and Cu(II)/L systems: log βFeH−1 = −4.07, log βFeH−3 = −11.42; log βCu2H−2 = −9.99. The species distribution curves were obtained with the Hyss program.

[4] = Protonation constants by spectrophotometric titration (Psequad fitting); assay type: physicochemical; conditions: pH 7.4, CL = 1 × 10^−5 M
Method: To formulate the model for the metal chelation mechanism of compounds 4c and 5a, their protonation constants were first determined by spectrophotometric titrations in a 50% (w/w) DMSO/H2O medium by fitting the experimental data with the program Psequad. This working medium was adopted to perform all the equilibrium studies due to certain solubility problems of the compounds. Since the concentration of the compound used in cell studies is low (<7 μM), the final corresponding concentration of DMSO in culture media would be much lower (<1%) and also is not expected to induce modifications of biological tissues.
The two positional isomeric hybrids 4c and 5a were titrated, alone or in the presence of the metal ions, in a 50% w/w DMSO/H2O medium, at T = 25.0 ± 0.1 °C and ionic strength of (I) 0.1 M KCl, by using a 0.1 M KOH (50% w/w DMSO/H2O) titrant solution. The glass and Ag/AgCl reference electrodes were previously conditioned in different DMSO/H2O mixtures of increasing DMSO % compositions, and the response of the glass electrode was evaluated by strong acid–strong base (HCl/KOH) calibrations with the determination of the Nernst parameters by Gran’s method. […] Under these specified experimental conditions, the pKw value (14.95) was determined and subsequently used in the calculations. […]

[5] = Cu(II) complexation by spectrophotometric titration; assay type: physicochemical
Method: as §2, §3

[6] = absence of copper, 20 µM inhibitor, thioflavin-T fluorescence
[7] = presence of copper (40 µM), 20 µM inhibitor, thioflavin-T fluorescence
[8] = pM = −log[M] at pH 7.4, CL/CM = 10, CM = 10^−6 M

SMILES | protection on MPP+-induced toxicity (cell viability, MTT) (SH-SY5Y cells) | Aβ42 Self- Aggreg. Inhib. (Aβ42 [1]; [6]) [%] | inhibition at 10 µM (hMAO-B) [%] | inhibition at 10 µM (hMAO-A) [%] | Aβ42 Cu-ind. Aggreg. Inhib. (Aβ42 [2]; [7]) [%] | IC50 (hMAO-A) [µM] | hMAO isoform selectivity (hMAO-A) | further results
CCN(C)C(=O)Oc1cccc(CNC(=O)c2cccc3[nH]c(-c4ccccc4O)nc23)c1 [5b] | significant protection | 58.7 | 34 | 22 | 60.8 | – | – | –
CCN(C)C(=O)Oc1cccc(CCNC(=O)c2ccc3[nH]c(-c4ccccc4O)nc3c2)c1 [4c] | – | 21.2 | 33 | 30 | 22.0 | – | – | log βFemHhLl, global formation constant, species (102) ([3]; FeL2 (102), T = 25.0 ± 0.1 °C, I = 0.1 M KCl, 50% w/w DMSO/water): 20.35(7); log βFemHhLl, global formation constant, species (103) ([3]; FeL3 (103), T = 25.0 ± 0.1 °C, I = 0.1 M KCl, 50% w/w DMSO/water): 28.40(6); log βFemHhLl, global formation constant, species (101) ([3]; FeL (101), T = 25.0 ± 0.1 °C, I = 0.1 M KCl, 50% w/w DMSO/water): 11.57(6); pM (pFe) [3, 8]: 16.8; predominant neutral species HL [4]: 97.4%; logβCumHhLl, global formation constant, species (1–11) ([5]; CuH−1L (1–11), T = 25.0 ± 0.1 °C, I = 0.1 M KCl, 50% w/w DMSO/water): 3.40(5); logβCumHhLl, global formation constant, species (102) ([5]; CuL2 (102), T = 25.0 ± 0.1 °C, I = 0.1 M KCl, 50% w/w DMSO/water): 17.16(8); logβCumHhLl, global formation constant, species (101) ([5]; CuL (101), T = 25.0 ± 0.1 °C, I = 0.1 M KCl, 50% w/w DMSO/water): 9.09(5); Kd ([5]; calculated at pH 7.4, read-out: conditional dissociation constant (K’d) for the copper complex): 0.032 µM; pM (pCu) [5, 8]: 10.3
CCN(C)C(=O)Oc1cccc(CNC(=O)c2ccc3[nH]c(-c4ccccc4O)nc3c2)c1 [4b] | – | 39.6 | 43 | – | 48.8 | 8.6 ± 0.9 | selective for isoform A | –
COc1cc(/C=C/C(=O)CC(=O)/C=C/c2ccc(O)c(OC)c2)ccc1O [Curcumin, curcumin, reference compound] | – | – | – | – | – | – | – | Aβ42 Self- Aggreg. Inhib. (Aβ42 [1]): 65.7%; Aβ42 Cu-ind. Aggreg. Inhib. (Aβ42 [2]): 62.7%
CCN(C)C(=O)Oc1cccc(NC(=O)c2ccc3[nH]c(-c4ccccc4O)nc3c2)c1 [4a] | significant protection | 39.0 | 28 | – | 41.2 | 0.74 ± 0.07 | selective for isoform A | –
